Measurements from ChEMBL document CHEMBL4043180, “Biological evaluation of 2-pyrazolinyl-1-carbothioamide derivatives against HCT116 human colorectal cancer cell lines and elucidation on QSAR and molecular binding modes” (Bioorg Med Chem, 2017).
Calls of active or inactive are those of the source. No cut-off for these calls is given here.

Key:
[1] = target: Tyrosine-protein kinase ABL1 (Homo sapiens) (UniProt P00519); test: Inhibition of Abl1 (unknown origin) at 10 uM
[2] = target: Bcr/Abl fusion protein (Homo sapiens) (UniProt P00519+P11274); test: Inhibition of BCR/ABL Tyr245 phosphorylation in human K562 cells at 20 uM incubated for 6 to 24 hrs; format: cell-based
Sequence of Bcr/Abl fusion protein (Homo sapiens) (P00519 whole entry, looked up, the tested form may be a part): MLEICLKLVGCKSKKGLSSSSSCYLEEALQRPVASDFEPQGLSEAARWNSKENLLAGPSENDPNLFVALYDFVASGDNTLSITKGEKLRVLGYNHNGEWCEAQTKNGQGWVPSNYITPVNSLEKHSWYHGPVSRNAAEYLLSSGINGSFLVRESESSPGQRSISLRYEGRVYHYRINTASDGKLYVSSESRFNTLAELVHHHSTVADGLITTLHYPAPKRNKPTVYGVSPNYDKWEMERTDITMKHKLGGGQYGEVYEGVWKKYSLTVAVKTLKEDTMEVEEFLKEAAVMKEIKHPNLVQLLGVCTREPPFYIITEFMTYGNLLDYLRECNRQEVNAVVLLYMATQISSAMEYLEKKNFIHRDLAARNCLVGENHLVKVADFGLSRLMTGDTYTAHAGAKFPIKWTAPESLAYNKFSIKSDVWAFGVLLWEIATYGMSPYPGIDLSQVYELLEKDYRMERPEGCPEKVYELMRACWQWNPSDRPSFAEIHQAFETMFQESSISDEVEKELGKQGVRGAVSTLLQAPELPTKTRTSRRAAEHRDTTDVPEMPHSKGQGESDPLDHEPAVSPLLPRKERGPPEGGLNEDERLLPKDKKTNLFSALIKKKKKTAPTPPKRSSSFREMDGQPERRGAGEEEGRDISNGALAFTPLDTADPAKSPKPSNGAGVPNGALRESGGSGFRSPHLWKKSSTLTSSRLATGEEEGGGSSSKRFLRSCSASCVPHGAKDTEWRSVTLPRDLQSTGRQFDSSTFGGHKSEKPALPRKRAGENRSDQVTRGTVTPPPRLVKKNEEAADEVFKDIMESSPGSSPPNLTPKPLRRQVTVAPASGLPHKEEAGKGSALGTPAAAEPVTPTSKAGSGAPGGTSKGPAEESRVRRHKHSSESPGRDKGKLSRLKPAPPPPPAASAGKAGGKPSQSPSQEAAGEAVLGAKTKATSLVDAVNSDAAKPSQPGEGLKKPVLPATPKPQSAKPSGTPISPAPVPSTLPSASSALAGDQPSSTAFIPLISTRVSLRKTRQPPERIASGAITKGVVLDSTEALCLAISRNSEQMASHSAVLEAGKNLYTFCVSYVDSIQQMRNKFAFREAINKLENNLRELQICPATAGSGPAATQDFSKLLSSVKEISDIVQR
Sequence of Bcr/Abl fusion protein (Homo sapiens) (P11274 whole entry, looked up, the tested form may be a part): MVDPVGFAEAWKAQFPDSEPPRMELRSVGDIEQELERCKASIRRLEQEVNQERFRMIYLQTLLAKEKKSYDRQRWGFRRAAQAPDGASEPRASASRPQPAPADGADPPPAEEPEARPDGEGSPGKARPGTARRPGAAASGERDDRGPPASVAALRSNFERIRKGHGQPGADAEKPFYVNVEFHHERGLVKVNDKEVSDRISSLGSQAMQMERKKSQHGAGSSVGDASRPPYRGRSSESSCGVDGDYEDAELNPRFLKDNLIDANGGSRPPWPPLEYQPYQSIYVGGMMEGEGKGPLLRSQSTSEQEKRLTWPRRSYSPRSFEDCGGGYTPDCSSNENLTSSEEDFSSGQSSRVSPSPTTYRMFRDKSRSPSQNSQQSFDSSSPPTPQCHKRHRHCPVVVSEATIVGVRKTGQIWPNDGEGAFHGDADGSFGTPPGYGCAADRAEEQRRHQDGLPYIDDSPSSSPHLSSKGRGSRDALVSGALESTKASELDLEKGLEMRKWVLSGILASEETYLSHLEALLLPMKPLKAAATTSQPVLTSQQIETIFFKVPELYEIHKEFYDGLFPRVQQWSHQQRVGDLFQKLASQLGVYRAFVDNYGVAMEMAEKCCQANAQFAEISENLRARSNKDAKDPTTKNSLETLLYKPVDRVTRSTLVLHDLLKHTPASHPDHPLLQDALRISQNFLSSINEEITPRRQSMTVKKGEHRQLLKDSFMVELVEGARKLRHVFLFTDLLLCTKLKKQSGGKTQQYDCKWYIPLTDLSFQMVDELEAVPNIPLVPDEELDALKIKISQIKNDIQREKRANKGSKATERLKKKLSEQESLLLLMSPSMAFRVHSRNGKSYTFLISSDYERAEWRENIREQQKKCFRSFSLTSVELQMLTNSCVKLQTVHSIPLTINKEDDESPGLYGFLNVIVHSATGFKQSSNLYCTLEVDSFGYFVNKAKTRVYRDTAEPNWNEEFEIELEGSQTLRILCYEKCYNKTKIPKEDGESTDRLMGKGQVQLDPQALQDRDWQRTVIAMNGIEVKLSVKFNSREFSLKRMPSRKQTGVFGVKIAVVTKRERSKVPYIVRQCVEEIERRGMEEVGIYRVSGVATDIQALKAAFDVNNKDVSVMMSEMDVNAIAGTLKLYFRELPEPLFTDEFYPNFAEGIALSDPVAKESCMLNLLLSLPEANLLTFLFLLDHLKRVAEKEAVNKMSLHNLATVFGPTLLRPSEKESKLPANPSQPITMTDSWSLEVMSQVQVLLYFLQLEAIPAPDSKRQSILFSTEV

Sequence of Tyrosine-protein kinase ABL1 (Homo sapiens) (P00519 whole entry, the tested form may be a part): as the sequence (P00519 whole entry, looked up, the tested form may be a part) above

inhibition [1]: 93% | inhibition [2]: Active
SMILES: COc1cc(O)c(C2=NN(C(=S)Nc3cc(OC)c(OC)c(OC)c3)C(c3cccc4ccccc34)C2)cc1OC (configuration not stated)
